From PubChem BioAssay (NCI)
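A five-concentration, 48-hour dose response in 96-well plates underlies each endpoint, interpolated linearly between surrounding concentrations. TGI: concentration producing complete growth inhibition.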

Tests used:
Assay in all cases: inhibition of tumour cell growth, NCI panel, 48 h
[1] = system: 786-0 renal
[2] = system: A498 renal
[3] = system: A549 NSCLC
[4] = system: ACHN renal
[5] = system: BT-549 breast
[6] = system: CAKI-1 renal
[7] = system: CCRF-CEM leukemia
[8] = system: COLO 205 colon
[9] = system: DU-145 prostate
[10] = system: EKVX NSCLC
[11] = system: HCC-2998 colon
[12] = system: HCT-116 colon
[13] = system: HCT-15 colon
[14] = system: HOP-62 NSCLC
[15] = system: HS 578T breast
[16] = system: HT29 colon
[17] = system: KM12 colon
[18] = system: LOX IMVI melanoma
[19] = system: M14 melanoma
[20] = system: MALME-3M melanoma
[21] = system: MCF7 breast
[22] = system: MDA-MB-231 breast
[23] = system: MDA-MB-435
[24] = system: MDA-N
[25] = system: NCI-H226 lung
[26] = system: NCI-H23 lung
[27] = system: NCI-H460 lung
[28] = system: NCI/ADR-RES ovarian
[29] = system: OVCAR-3 ovarian
[30] = system: OVCAR-4 ovarian
[31] = system: OVCAR-5 ovarian
[32] = system: OVCAR-8 ovarian
[33] = system: PC-3 prostate
[34] = system: RPMI-8226 leukemia
[35] = system: RXF 393 renal
[36] = system: SF-268 CNS
[37] = system: SF-295 CNS
[38] = system: SF-539 CNS
[39] = system: SK-MEL-2 melanoma
[40] = system: SK-MEL-28 melanoma
[41] = system: SK-OV-3 ovarian
[42] = system: SN12C renal
[43] = system: SNB-19 CNS
[44] = system: SNB-75 CNS
[45] = system: SW-620 colon
[46] = system: T-47D breast
[47] = system: U251 CNS
[48] = system: UACC-257 melanoma
[49] = system: UACC-62 melanoma
[50] = system: UO-31 renal
[51] = system: HOP-92 NSCLC
[52] = system: IGROV1 ovarian
[53] = system: K-562 leukemia
[54] = system: MOLT-4 leukemia
[55] = system: NCI-H522 lung
[56] = system: SK-MEL-5 melanoma
[57] = system: TK-10 renal
[58] = system: HL-60(TB) leukemia

O=[N+]([O-])/C(C(Cl)=C(Cl)Cl)=C(\Nc1cccc2ccccc12)n1nnc2ccccc21 gave a TGI [1] of over 100 µM, a TGI [2] of over 100 µM and a TGI [3] of over 100 µM. For the same compound, the TGI [4] was over 100 µM, the TGI [5] was 98.8 µM and the TGI [6] was over 100 µM. For the same compound, the TGI [7] was over 100 µM, the TGI [8] was 41 µM and the TGI [9] was over 100 µM. It also gave a TGI [10] of over 100 µM, a TGI [11] of over 100 µM and a TGI [12] of over 100 µM. The TGI [13] was over 100 µM, the TGI [14] was over 100 µM and the TGI [15] was 39.1 µM. The TGI [16] was over 100 µM, the TGI [17] was over 100 µM and the TGI [18] was over 100 µM. It also gave a TGI [19] of over 100 µM, a TGI [20] of over 100 µM and a TGI [21] of over 100 µM. The TGI [22] was over 100 µM, the TGI [23] was over 100 µM and the TGI [24] was over 100 µM. It also gave a TGI [25] of over 100 µM, a TGI [26] of over 100 µM and a TGI [27] of over 100 µM. It also gave a TGI [28] of over 100 µM, a TGI [29] of over 100 µM and a TGI [30] of over 100 µM. It also gave a TGI [31] of over 100 µM, a TGI [32] of over 100 µM and a TGI [33] of over 100 µM. The TGI [34] was over 100 µM, the TGI [35] was 79.3 µM and the TGI [36] was over 100 µM. For the same compound, the TGI [37] was over 100 µM, the TGI [38] was over 100 µM and the TGI [39] was over 100 µM. For the same compound, the TGI [40] was over 100 µM, the TGI [41] was over 100 µM and the TGI [42] was over 100 µM. The TGI [43] was over 100 µM, the TGI [44] was over 100 µM and the TGI [45] was over 100 µM. The TGI [46] was over 100 µM, the TGI [47] was over 100 µM and the TGI [48] was over 100 µM. It also gave a TGI [49] of over 100 µM and a TGI [50] of over 100 µM.
Work on CCN(CC)CCn1ncc2c(N)ncnc21 yielded a TGI [1] of over 100 µM, a TGI [2] of over 100 µM and a TGI [3] of over 100 µM. For the same compound, the TGI [4] was over 100 µM, the TGI [5] was over 100 µM and the TGI [6] was over 100 µM. For the same compound, the TGI [7] was over 100 µM, the TGI [8] was over 100 µM and the TGI [9] was over 100 µM. It also gave a TGI [10] of over 100 µM, a TGI [11] of over 100 µM and a TGI [12] of over 100 µM. For the same compound, the TGI [13] was over 100 µM, the TGI [14] was over 100 µM and the TGI [51] was over 100 µM. It also gave a TGI [15] of over 100 µM, a TGI [16] of over 100 µM and a TGI [52] of over 100 µM. It also gave a TGI [53] of over 100 µM, a TGI [17] of over 100 µM and a TGI [18] of over 100 µM. It also gave a TGI [19] of over 100 µM, a TGI [20] of over 100 µM and a TGI [21] of over 100 µM. For the same compound, the TGI [22] was over 100 µM, the TGI [23] was over 100 µM and the TGI [24] was over 100 µM. The TGI [54] was over 100 µM, the TGI [25] was over 100 µM and the TGI [26] was over 100 µM. The TGI [27] was over 100 µM, the TGI [55] was over 100 µM and the TGI [28] was over 100 µM. For the same compound, the TGI [29] was over 100 µM, the TGI [30] was over 100 µM and the TGI [31] was over 100 µM. It also gave a TGI [32] of over 100 µM, a TGI [33] of over 100 µM and a TGI [34] of over 100 µM. The TGI [35] was over 100 µM, the TGI [36] was over 100 µM and the TGI [37] was over 100 µM. The TGI [39] was over 100 µM, the TGI [40] was over 100 µM and the TGI [56] was over 100 µM. It also gave a TGI [41] of over 100 µM, a TGI [42] of over 100 µM and a TGI [43] of over 100 µM. The TGI [45] was over 100 µM, the TGI [46] was over 100 µM and the TGI [57] was over 100 µM. For the same compound, the TGI [47] was over 100 µM, the TGI [49] was over 100 µM and the TGI [50] was over 100 µM.
Work on O=C1/C(=C/c2ccc(Cl)cc2)N=C(c2ccccc2)N1c1nc2ccc(Sc3ccccc3)cc2[nH]1 yielded a TGI [1] of 64.6 µM, a TGI [2] of 72.3 µM and a TGI [3] of over 100 µM. The TGI [4] was over 100 µM, the TGI [5] was 57.7 µM and the TGI [6] was over 100 µM. It also gave a TGI [7] of 87 µM, a TGI [8] of 33.8 µM and a TGI [9] of over 100 µM. It also gave a TGI [10] of over 100 µM, a TGI [11] of 31.4 µM and a TGI [12] of 62.3 µM. It also gave a TGI [13] of over 100 µM, a TGI [58] of 35.6 µM and a TGI [14] of over 100 µM. It also gave a TGI [51] of over 100 µM, a TGI [15] of 91.4 µM and a TGI [16] of 40 µM. For the same compound, the TGI [52] was over 100 µM, the TGI [53] was 61.8 µM and the TGI [17] was 81.2 µM. It also gave a TGI [18] of 61.9 µM, a TGI [19] of 35.1 µM and a TGI [20] of 58.9 µM. For the same compound, the TGI [21] was 63.5 µM, the TGI [22] was 90.1 µM and the TGI [23] was 27.1 µM. For the same compound, the TGI [24] was 27.7 µM, the TGI [54] was 87.6 µM and the TGI [26] was over 100 µM. It also gave a TGI [27] of 61.8 µM, a TGI [55] of 54.3 µM and a TGI [28] of 75.5 µM. It also gave a TGI [29] of over 100 µM, a TGI [30] of over 100 µM and a TGI [31] of over 100 µM. It also gave a TGI [32] of over 100 µM, a TGI [33] of over 100 µM and a TGI [34] of 55.7 µM. For the same compound, the TGI [35] was over 100 µM, the TGI [36] was over 100 µM and the TGI [37] was 87.1 µM. The TGI [39] was 31.6 µM, the TGI [40] was 72.7 µM and the TGI [56] was 29.2 µM. For the same compound, the TGI [41] was over 100 µM, the TGI [42] was over 100 µM and the TGI [43] was over 100 µM. The TGI [44] was 60.2 µM, the TGI [45] was 80.8 µM and the TGI [46] was over 100 µM. It also gave a TGI [57] of 59.6 µM, a TGI [47] of 84.7 µM and a TGI [48] of 55.8 µM. For the same compound, the TGI [49] was 29.8 µM and the TGI [50] was over 100 µM.
